Assay results: patent publication US7189758B2, “Glucocorticoid mimetics, methods of making them, pharmaceutical formulations, and uses thereof” (Boehringer Ingelheim Pharmaceuticals, Inc., priority 2002, dated 2007)

Biological target: T1, human glucocorticoid receptor (GR) complex (Homo sapiens, UniProt P04150)
T1 construct: made in house; host or cells: insect cells (baculovirus expression), used as crude lysate
T1 sequence (P04150 1-777): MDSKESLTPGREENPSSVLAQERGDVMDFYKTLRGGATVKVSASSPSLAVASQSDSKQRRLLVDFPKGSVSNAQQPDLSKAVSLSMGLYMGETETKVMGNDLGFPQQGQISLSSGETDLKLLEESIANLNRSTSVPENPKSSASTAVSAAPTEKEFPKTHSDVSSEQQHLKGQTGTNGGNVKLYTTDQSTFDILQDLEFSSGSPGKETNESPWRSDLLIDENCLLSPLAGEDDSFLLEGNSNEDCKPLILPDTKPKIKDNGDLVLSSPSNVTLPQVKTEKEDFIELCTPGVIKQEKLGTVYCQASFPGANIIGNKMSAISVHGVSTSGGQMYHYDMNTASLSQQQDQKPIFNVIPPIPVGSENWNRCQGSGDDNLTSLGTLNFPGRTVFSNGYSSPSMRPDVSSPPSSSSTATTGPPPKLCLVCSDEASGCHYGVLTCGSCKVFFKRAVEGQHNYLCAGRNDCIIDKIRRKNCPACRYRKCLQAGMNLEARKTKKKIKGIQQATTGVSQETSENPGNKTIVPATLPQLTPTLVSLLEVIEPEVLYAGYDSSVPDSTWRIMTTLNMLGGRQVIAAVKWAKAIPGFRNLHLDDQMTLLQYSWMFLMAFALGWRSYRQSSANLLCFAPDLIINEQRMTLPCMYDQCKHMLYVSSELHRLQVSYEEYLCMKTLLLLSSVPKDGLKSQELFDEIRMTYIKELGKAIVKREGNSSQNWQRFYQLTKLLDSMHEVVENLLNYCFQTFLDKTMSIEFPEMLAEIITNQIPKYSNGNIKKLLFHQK
Experiment: Glucocorticoid receptor competitive binding assay (fluorescence polarization, TAMRA-labeled dexamethasone probe)
Conditions: result in words only; IC50 values not given
Experimental: Compounds of the invention were evaluated for binding to the steroid receptor by a fluorescence polarization competitive binding assay.
A. Glucocorticoid Receptor Competitive Binding Assay
Step 1. Characterization of the Fluorescent Probe
The wavelengths for maximum excitation and emission of the fluorescent probe should first be measured. An example of such a probe is rhodamine (TAMRA)-labeled dexamethasone.
The affinity of the probe for the steroid receptor was then determined in a titration experiment. The fluorescence polarization value of the probe in assay buffer was measured on an SLM-8100 fluorometer using the excitation and emission maximum values described above. Aliquots of expression vector lysate were added and fluorescence polarization was measured after each addition until no further change in polarization value was observed. Non-linear least squares regression analysis was used to calculate the dissociation constant of the probe from the polarization values obtained for lysate binding to the probe.
Step 2. Screening for Inhibitors of Probe Binding
This assay uses fluorescence polarization (FP) to quantitate the ability of test compounds to compete with tetramethyl rhodamine (TAMRA)-labeled dexamethasone for binding to a human glucocorticoid receptor (GR) complex prepared from an insect expression system. The assay buffer was: 10 mM TES, 50 mM KCl, 20 mM Na2MoO4.2H2O, 1.5 mM EDTA, 0.04% w/v CHAPS, 10% v/v glycerol, 1 mM dithiothreitol, pH 7.4. Test compounds were dissolved to 1 mM in neat DMSO and then further diluted to 10× assay concentration in assay buffer supplemented with 10% v/v DMSO. Test compounds were serially diluted at 10× assay concentrations in 10% DMSO-containing buffer in 96-well polypropylene plates. Binding reaction mixtures were prepared in 96-well black Dynex microtiter plates by sequential addition of the following assay components to each well: 15 μL of 10× test compound solution, 85 μL of GR-containing baculovirus lysate diluted 1:170 in assay buffer, and 50 μL of 15 nM TAMRA-labeled dexamethasone. Positive controls were reaction mixtures containing no test compound; negative controls (blanks) were reaction mixtures containing 0.7 μM to 2 μM dexamethasone. […] IC50 values were determined by iterative non-linear curve fitting of the FP signal data to a 4-parameter logistic equation.

SMILES	activity in the GR binding assay
CC(C)(CC(O)(Cc1ccc(F)c(F)c1)C(=O)Nc1ccc2c(c1)COC2=O)c1cc(F)ccc1O (centres unmarked) [2-(3,4-Difluorobenzyl)-4-(5-fluoro-2-hydroxyphenyl)-2-hydroxy-4-methylpentanoic acid (1-oxo-1,3-dihydroisobenzofuran-5-yl)amide]	potent activity
COc1ccc(F)cc1C(C)(C)CC(O)(Cc1cccc(F)c1)C(=O)Nc1ccc2c(c1)COC2=O (centres unmarked) [2-(3-Fluorobenzyl)-4-(5-fluoro-2-methoxyphenyl)-2-hydroxy-4-methylpentanoic acid (1-oxo-1,3-dihydroisobenzofuran-5-yl)amide]	potent activity
CC(C)(CC(O)(Cc1ccc(F)cc1)C(=O)Nc1ccc2c(c1)COC2=O)c1cc(F)ccc1O (centres unmarked) [2-(4-Fluorobenzyl)-4-(5-fluoro-2-hydroxyphenyl)-2-hydroxy-4-methylpentanoic acid (1-oxo-1,3-dihydroisobenzofuran-5-yl)amide]	potent activity
Cc1noc(=O)c2ccc(NC(=O)C(O)(Cc3ccccc3)CC(C)(C)c3cc(F)ccc3O)cc12 (centres unmarked) [2-Benzyl-4-(5-fluoro-2-hydroxyphenyl)-2-hydroxy-4-methylpentanoic acid (4-methyl-1-oxo-1H-benzo[d][1,2]oxazin-6-yl)amide]	potent activity
COc1ccc(F)cc1C(C)(C)CC(O)(Cc1ccccc1)C(=O)Nc1ccc2c(c1)COC2=O (centres unmarked) [2-Benzyl-4-(5-fluoro-2-methoxyphenyl)-2-hydroxy-4-methylpentanoic acid (1-oxo-1,3-dihydroisobenzofuran-5-yl)amide]	potent activity
COc1ccc(F)cc1C(C)(C)CC(O)(Cc1ccccc1)C(=O)Nc1ccc2c(=O)onc(C)c2c1 (centres unmarked) [2-Benzyl-4-(5-fluoro-2-methoxyphenyl)-2-hydroxy-4-methylpentanoic acid (4-methyl-1-oxo-1H-benzo[d][1,2]oxazin-6-yl)amide]	potent activity
Cc1noc(=O)c2ccc(NC(=O)C(O)(CC3CCCCC3)CC(C)(C)c3ccccc3)cc12 (centres unmarked) [2-Cyclohexylmethyl-2-hydroxy-4-methyl-4-phenylpentanoic acid (4-methyl-1-oxo-1H-benzo[d][1,2]oxazin-6-yl)amide]	potent activity
CC(C)(CC(O)(CC1CCCCC1)C(=O)Nc1ccc2c(c1)COC2=O)c1cc(F)ccc1O (centres unmarked) [2-Cyclohexylmethyl-4-(5-fluoro-2-hydroxyphenyl)-2-hydroxy-4-methylpentanoic acid (1-oxo-1,3-dihydroisobenzofuran-5-yl)amide]	potent activity
COc1ccc(F)cc1C(C)(C)CC(O)(CC1CCCCC1)C(=O)Nc1ccc2c(c1)COC2=O (centres unmarked) [2-Cyclohexylmethyl-4-(5-fluoro-2-methoxyphenyl)-2-hydroxy-4-methylpentanoic acid (1-oxo-1,3-dihydroisobenzofuran-5-yl)amide]	potent activity
COc1ccc(F)cc1C(C)(C)CC(O)(CC1CCCCC1)C(=O)Nc1ccc2c(=O)onc(C)c2c1 (centres unmarked) [2-Cyclohexylmethyl-4-(5-fluoro-2-methoxyphenyl)-2-hydroxy-4-methylpentanoic acid (4-methyl-1-oxo-1H-benzo[d][1,2]oxazin-6-yl)amide]	potent activity
CC(C)(CC(O)(C(=O)Nc1ccc2c(c1)COC2=O)C1CCCC1)c1cc(F)ccc1O (centres unmarked) [2-Cyclopentyl-4-(5-fluoro-2-hydroxyphenyl)-2-hydroxy-4-methylpentanoic acid (1-oxo-1,3-dihydroisobenzofuran-5-yl)amide]	potent activity
CC(C)(CC(O)(CC1CCCC1)C(=O)Nc1ccc2c(c1)COC2=O)c1cc(F)ccc1O (centres unmarked) [2-Cyclopentylmethyl-4-(5-fluoro-2-hydroxyphenyl)-2-hydroxy-4-methylpentanoic acid (1-oxo-1,3-dihydroisobenzofuran-5-yl)amide]	potent activity
CC(C)(CC(O)(CC(C)(C)c1ccccc1)C(=O)Nc1ccc2c(c1)COC2=O)c1ccccc1 [2-Hydroxy-4-methyl-2-(2-methyl-2-phenylpropyl)-4-phenylpentanoic acid (1-oxo-1,3-dihydroisobenzofuran-5-yl)amide]	potent activity
CC(c1ccccc1)C(O)(CC(C)(C)c1cc(F)ccc1O)C(=O)Nc1ccc2c(c1)COC2=O (centres unmarked) [4-(5-Fluoro-2-hydroxyphenyl)-2-hydroxy-4-methyl-2-(1-phenylethyl)pentanoic acid (1-oxo-1,3-dihydroisobenzofuran-5-yl)amide]	potent activity
CC(C)(CC(O)(CCc1ccccc1)C(=O)Nc1ccc2c(c1)COC2=O)c1cc(F)ccc1O (centres unmarked) [4-(5-Fluoro-2-hydroxyphenyl)-2-hydroxy-4-methyl-2-phenethylpentanoic acid (1-oxo-1,3-dihydroisobenzofuran-5-yl)amide]	potent activity

The next lines start with the values.

activity in the GR binding assay	SMILES
potent activity	CC(C)(CC(O)(Cc1ccccc1Br)C(=O)Nc1ccc2c(c1)COC2=O)c1cc(F)ccc1O (centres unmarked) [2-(2-Bromobenzyl)-4-(5-fluoro-2-hydroxyphenyl)-2-hydroxy-4-methylpentanoic acid (1-oxo-1,3-dihydroisobenzofuran-5-yl)amide]
potent activity	COc1ccc(F)cc1C(C)(C)CC(O)(Cc1ccccc1Br)C(=O)Nc1ccc2c(c1)COC2=O (centres unmarked) [2-(2-Bromobenzyl)-4-(5-fluoro-2-methoxyphenyl)-2-hydroxy-4-methylpentanoic acid (1-oxo-1,3-dihydroisobenzofuran-5-yl)amide]
potent activity	CC(C)(CC(O)(Cc1ccccc1Cl)C(=O)Nc1ccc2c(c1)COC2=O)c1cc(F)ccc1O (centres unmarked) [2-(2-Chlorobenzyl)-4-(5-fluoro-2-hydroxyphenyl)-2-hydroxy-4-methylpentanoic acid (1-oxo-1,3-dihydroisobenzofuran-5-yl)amide]
potent activity	COc1ccc(F)cc1C(C)(C)CC(O)(Cc1ccccc1Cl)C(=O)Nc1ccc2c(c1)COC2=O (centres unmarked) [2-(2-Chlorobenzyl)-4-(5-fluoro-2-methoxyphenyl)-2-hydroxy-4-methylpentanoic acid (1-oxo-1,3-dihydroisobenzofuran-5-yl)amide]
potent activity	CC(C)(CC(O)(Cc1ccccc1F)C(=O)Nc1ccc2c(c1)COC2=O)c1cc(F)ccc1O (centres unmarked) [2-(2-Fluorobenzyl)-4-(5-fluoro-2-hydroxyphenyl)-2-hydroxy-4-methylpentanoic acid (1-oxo-1,3-dihydroisobenzofuran-5-yl)amide]
potent activity	COc1ccc(F)cc1C(C)(C)CC(O)(Cc1ccccc1F)C(=O)Nc1ccc2c(c1)COC2=O (centres unmarked) [2-(2-Fluorobenzyl)-4-(5-fluoro-2-methoxyphenyl)-2-hydroxy-4-methylpentanoic acid (1-oxo-1,3-dihydroisobenzofuran-5-yl)amide]
potent activity	CC(C)(CC(O)(Cc1ccccc1O)C(=O)Nc1ccc2c(c1)COC2=O)c1cc(F)ccc1O (centres unmarked) [4-(5-Fluoro-2-hydroxyphenyl)-2-hydroxy-2-(2-hydroxybenzyl)-4-methylpentanoic acid (1-oxo-1,3-dihydroisobenzofuran-5-yl)amide]
potent activity	Cc1ccccc1CC(O)(CC(C)(C)c1cc(F)ccc1O)C(=O)Nc1ccc2c(c1)COC2=O (centres unmarked) [4-(5-Fluoro-2-hydroxyphenyl)-2-hydroxy-4-methyl-2-(2-methylbenzyl)pentanoic acid (1-oxo-1,3-dihydroisobenzofuran-5-yl)amide]
